Measured values published in US20140323543A1, “Treatment of Prostate Cancer with eIF4E Antisense Compounds” (priority 2013, published 2014).
Marks after values point to notes of the source that are not given here. In the oligonucleotide strings, read from the 5' end, every base follows the letter of its sugar. An asterisk marks phosphorothioate; unmarked linkages are phosphodiester. Other units and linkages are bracketed, terminal groups are in braces. A string of capitals states the bases alone. e = 2'-O-(2-methoxyethyl) (MOE); [5mC] = 5-methylcytosine; d = 2'-deoxy (DNA)

Key:
Assay type in all cases: in vivo
[1] = system: A549 Non-Small Cell Lung Cancer Xenograft; test: A549 non-small cell lung cancer xenograft tumor volume in mice; parameters: key to Mean Tumor Volume: tumor volume in mm^3; conditions: ASO 50 mg/kg iv; for Mean Tumor Volume: in mm³; for Percent Reduction in Mean Tumor Volumes (observed): NSCLC A 549 Day 50, vs. Vehicle Control, Taxotere 10 mg/kg IP
Experimental: (§1) Xenograft studies are carried out as described in Graff et al. (2005) Cancer Res. 65:7462-7469. Five million human cancer cells representing non-small cell lung cancer (line A549; ATCC, accession no. CCL-185), hormone refractory prostate cancer (line PC-3; ATCC, accession no. CRL-1435), and ER-/PR-HER2-breast cancer (line MDA-231; ATCC, accession no. HTB-26) are injected subcutaneously in the flank of 6-8 week old, athymic nude mice (Harlan, Indianapolis, Ind.) in a 1:1 mixture of serum-free growth medium and matrigel (Becton Dickinson, Bedford, Mass., catalogue #354234). Mice are monitored daily for palpable tumors.
(§2) When tumor volumes reach ˜50-100 mm^3, mice are randomized to treatment groups (Graff et al. (2007) J. Clin. Invest. 117:2638-48). Body weight is monitored each time tumors are measured.
(§3) For treatment, all mice are injected intravenously with the eIF-4E ASO in saline in a total volume of 200 μl. The ASO consists of the nucleotide sequence 5′-[…]-3′ (SEQ ID NO:1), in which every internucleoside linkage is a phosphorothioate linkage, nucleotides 1-5 and 16-20 reading from the 5′ end to the 3′ end each comprise a 2′-O-(2-methoxyethyl) sugar, nucleotides 6-15 are 2′-deoxynucleotides, every cytosine residue is a 5-methylcytosine, and which is in the form of a sodium salt. The mice are first injected with an initial loading dose of 50 mg/kg ASO for 3 consecutive days, followed by 50 mg/kg thrice weekly thereafter.
(§4) Taxotere® (docetaxel) dosing begins 8 days after the first ASO dose to allow time for reduction of eIF-4E protein expression. Mice are dosed with 2.5 or 10 mg/kg Taxotere® (Sanofi-Aventis) intraperitoneally (IP) in 1% ethanol in 5% dextrose water in a volume of 200 μl once weekly for 3 weeks.
(§5) Tumor volumes are calculated measuring the largest (L) and smallest (W) diameters with a caliper. The formula is: Volume=L×W^2×0.534. Tumor volume data are transformed to a log scale to equalize variance across time and treatment groups. The log volume data are analyzed with a two-way repeated measures analysis of variance by time and treatment using SAS PROC MIXED software (SAS Institute Inc, Cary, N.C.) using the spatial power covariance structure. Treatment groups are compared to the control group at each time point and overall. The data may be plotted as means and standard errors for each treatment group versus time. Additivity is assessed in two ways: (1) as an overall interaction effect between the ASO and Taxotere® in the repeated measures analysis, and (2) by using the Bliss Independence method on the final day of the study (C.I. Bliss (1939) Ann. Appl. Biol. 26:585-615). These two methods yield the same results.
(§6) The observed percent reductions in mean tumor volume at the conclusion of each study resulting from the various treatments are shown in Table 4. These are calculated as: […]
(§7) The “Expected if Additive” percent reductions in mean tumor volume shown in Table 4 are calculated using the Bliss Independence definition of additivity, as follows: […]

[2] = system: PC-3 Hormone-Refractory Prostate Cancer Xenograft; test: PC-3 hormone-refractory prostate cancer xenograft tumor volume in mice; conditions: ASO 50 mg/kg iv; for Mean Tumor Volume: in mm³; for Percent Reduction in Mean Tumor Volumes (observed): Prostate PC3 Day 35, vs. Vehicle Control
Experimental: as §1, §2, §3, §4, §5, §6, §7

[3] = system: MDA-231 Breast Cancer Xenograft; test: MDA-231 breast cancer xenograft tumor volume in mice; conditions: for Percent Reduction in Mean Tumor Volumes (observed): Breast MDA-231 Day 33, vs. Vehicle Control; for Percent Reduction in Mean Tumor Volumes (observed) / Mean Tumor Volume: ASO 50 mg/kg iv; for Mean Tumor Volume: in mm³
Experimental: as §1, §2, §3, §4, §5, §6, §7

[4] = Day 7, docetaxel 10 mg/kg IP once weekly from 8 days after first ASO dose, tumor volumes in mm^3
[5] = Day 7, Taxotere 10 mg/kg IP once weekly from 8 days after first ASO dose, tumor volumes in mm^3
[6] = Day 5, Taxotere 2.5 mg/kg IP once weekly from 8 days after first ASO dose, tumor volumes in mm^3

In the case of “d(P-thio)([2′-O-(2-methoxyethyl)]m5rU-([2′-O-(2-methoxyethyl)]rG-([2′-O-(2-methoxyethyl)]m5rU-([2′-O-(2-methoxyethyl)]m5rC-([2′-O-(2-methoxyethyl)]rA-T-A-T-T-m5C-m5C-T-G-G-A-([2′-O-(2-methoxyethyl)]m5rU-([2′-O-(2-methoxyethyl)]m5rC-([2′-O-(2-methoxyethyl)]m5rC-([2′-O-(2-methoxyethyl)]m5rU-([2′-O-(2-methoxyethyl)]m5rU) (antisense eT*eG*eT*e[5mC]*eA*dT*dA*dT*dT*d[5mC]*d[5mC]*dT*dG*dG*dA*eT*e[5mC]*e[5mC]*eT*eT) [eIF-4E ASO]”, the “Mean Tumor Volume” value [1, 4] is reported as 52.7, the “Mean Tumor Volume” value ([1]; Day 10, docetaxel 10 mg/kg IP) is reported as 69.4 and the “Mean Tumor Volume” value ([1]; Day 15, docetaxel 10 mg/kg IP) is reported as 113.7. For the same compound, the “Mean Tumor Volume” value ([1]; Day 18, docetaxel 10 mg/kg IP) was 79.1, the “Mean Tumor Volume” value ([1]; Day 22, docetaxel 10 mg/kg IP) was 139.5 and the “Mean Tumor Volume” value ([1]; Day 25, docetaxel 10 mg/kg IP) was 149.0. For the same compound, the “Mean Tumor Volume” value ([1]; Day 29, docetaxel 10 mg/kg IP) was 220.1, the “Mean Tumor Volume” value ([1]; Day 32, docetaxel 10 mg/kg IP) was 249.5 and the “Mean Tumor Volume” value ([1]; Day 36, docetaxel 10 mg/kg IP) was 256.6. The “Mean Tumor Volume” value ([1]; Day 39, docetaxel 10 mg/kg IP) was 239.1, the “Mean Tumor Volume” value ([1]; Day 43, docetaxel 10 mg/kg IP) was 313.2 and the “Mean Tumor Volume” value ([1]; Day 46, docetaxel 10 mg/kg IP) was 292.3. For the same compound, the “Mean Tumor Volume” value ([1]; Day 50, docetaxel 10 mg/kg IP) was 404.0, the “Percent Reduction in Mean Tumor Volumes (observed)” value (shortened to “Percent Reduction”) [1] was −17.3% and the “Mean Tumor Volume” value [2, 5] was 49.8. For the same compound, the “Mean Tumor Volume” value ([2]; Day 12, Taxotere 10 mg/kg IP) was 88.3, the “Mean Tumor Volume” value ([2]; Day 15, Taxotere 10 mg/kg IP) was 130.3 and the “Mean Tumor Volume” value ([2]; Day 19, Taxotere 10 mg/kg IP) was 159.0. The “Mean Tumor Volume” value ([2]; Day 22, Taxotere 10 mg/kg IP) was 218.8, the “Mean Tumor Volume” value ([2]; Day 27, Taxotere 10 mg/kg IP) was 294.5 and the “Mean Tumor Volume” value ([2]; Day 29, Taxotere 10 mg/kg IP) was 343.9. The “Mean Tumor Volume” value ([2]; Day 33, Taxotere 10 mg/kg IP) was 424.0, the “Mean Tumor Volume” value ([2]; Day 35, Taxotere 10 mg/kg IP) was 491.2 and the “Percent Reduction” value ([2]; Taxotere 10 mg/kg IP) was −10.2%. For the same compound, the “Percent Reduction” value ([3]; Taxotere 2.5 mg/kg IP) was “+16.6%”, the “Mean Tumor Volume” value [3, 6] was 78.9 and the “Mean Tumor Volume” value ([3]; Day 8, Taxotere 2.5 mg/kg IP) was 129.4. The “Mean Tumor Volume” value ([3]; Day 12, Taxotere 2.5 mg/kg IP) was 166.6, the “Mean Tumor Volume” value ([3]; Day 15, Taxotere 2.5 mg/kg IP) was 221.0 and the “Mean Tumor Volume” value ([3]; Day 19, Taxotere 2.5 mg/kg IP) was 268.2. The “Mean Tumor Volume” value ([3]; Day 22, Taxotere 2.5 mg/kg IP) was 356.3, the “Mean Tumor Volume” value ([3]; Day 26, Taxotere 2.5 mg/kg IP) was 435.9 and the “Mean Tumor Volume” value ([3]; Day 29, Taxotere 2.5 mg/kg IP) was 574.1. For the same compound, the “Mean Tumor Volume” value ([3]; Day 33, Taxotere 2.5 mg/kg IP) was 626.2 and the “Effect on mean tumor volume (in words)” value ([3]; breast cancer model, ASO alone) was “non-statistically significant increase”.
For `CC(=O)O[C@@]12CO[C@@H]1C[C@H](O)[C@@]1(C)C(=O)[C@H](O)C3=C(C)[C@@H](OC(=O)[C@H](O)[C@@H](NC(=O)OC(C)(C)C)c4ccccc4)C[C@@](O)([C@@H](OC(=O)c4ccccc4)[C@H]21)C3(C)C` [Docetaxel, (2R,3S)—N-carboxy-3-phenylisoseine,N-tert-butyl ester, 13-ester with 5β-20-epoxy-1,2α,4,7β,10β,13α-hexahydroxytax-11-en-9-one 4-acetate 2-benzoate, trihydrate, reference compound], the “Mean Tumor Volume” value [1, 4] was 49.7, the “Mean Tumor Volume” value ([1]; Day 10, docetaxel 10 mg/kg IP) was 56.7 and the “Mean Tumor Volume” value ([1]; Day 15, docetaxel 10 mg/kg IP) was 114.8. The “Mean Tumor Volume” value ([1]; Day 18, docetaxel 10 mg/kg IP) was 70.0, the “Mean Tumor Volume” value ([1]; Day 22, docetaxel 10 mg/kg IP) was 135.8 and the “Mean Tumor Volume” value ([1]; Day 25, docetaxel 10 mg/kg IP) was 170.1. The “Mean Tumor Volume” value ([1]; Day 29, docetaxel 10 mg/kg IP) was 257.0, the “Mean Tumor Volume” value ([1]; Day 32, docetaxel 10 mg/kg IP) was 261.5 and the “Mean Tumor Volume” value ([1]; Day 36, docetaxel 10 mg/kg IP) was 290.0. For the same compound, the “Mean Tumor Volume” value ([1]; Day 39, docetaxel 10 mg/kg IP) was 282.3, the “Mean Tumor Volume” value ([1]; Day 43, docetaxel 10 mg/kg IP) was 342.6 and the “Mean Tumor Volume” value ([1]; Day 46, docetaxel 10 mg/kg IP) was 310.2. For the same compound, the “Mean Tumor Volume” value ([1]; Day 50, docetaxel 10 mg/kg IP) was 343.8, the “Percent Reduction” value [1] was −29.6% and the “Mean Tumor Volume” value [2, 5] was 46.3. The “Mean Tumor Volume” value ([2]; Day 12, Taxotere 10 mg/kg IP) was 106.8, the “Mean Tumor Volume” value ([2]; Day 15, Taxotere 10 mg/kg IP) was 134.7 and the “Mean Tumor Volume” value ([2]; Day 19, Taxotere 10 mg/kg IP) was 164.8. The “Mean Tumor Volume” value ([2]; Day 22, Taxotere 10 mg/kg IP) was 171.7, the “Mean Tumor Volume” value ([2]; Day 27, Taxotere 10 mg/kg IP) was 157.4 and the “Mean Tumor Volume” value ([2]; Day 29, Taxotere 10 mg/kg IP) was 162.7. The “Mean Tumor Volume” value ([2]; Day 33, Taxotere 10 mg/kg IP) was 161.6, the “Mean Tumor Volume” value ([2]; Day 35, Taxotere 10 mg/kg IP) was 167.0 and the “Percent Reduction” value ([2]; Taxotere 10 mg/kg IP) was −69.5%*. The “Percent Reduction” value ([3]; Taxotere 2.5 mg/kg IP) was −1.4%, the “Mean Tumor Volume” value [3, 6] was 78.7 and the “Mean Tumor Volume” value ([3]; Day 8, Taxotere 2.5 mg/kg IP) was 130.1. For the same compound, the “Mean Tumor Volume” value ([3]; Day 12, Taxotere 2.5 mg/kg IP) was 180.9, the “Mean Tumor Volume” value ([3]; Day 15, Taxotere 2.5 mg/kg IP) was 221.0 and the “Mean Tumor Volume” value ([3]; Day 19, Taxotere 2.5 mg/kg IP) was 270.3. The “Mean Tumor Volume” value ([3]; Day 22, Taxotere 2.5 mg/kg IP) was 333.9, the “Mean Tumor Volume” value ([3]; Day 26, Taxotere 2.5 mg/kg IP) was 384.9 and the “Mean Tumor Volume” value ([3]; Day 29, Taxotere 2.5 mg/kg IP) was 450.4. The “Mean Tumor Volume” value ([3]; Day 33, Taxotere 2.5 mg/kg IP) was 529.6.
